# Key:
# hERG potassium channels = hERG potassium channels (Homo sapiens, UniProt Q12809); assay: cell-based
# Method: CHO cells expressing hERG protein were cultured in 175 cm^2 culture flasks. When the cell density grew to 60-80%, the culture medium was removed, the cells were washed once with 7 mL PBS, and then 3 mL Detachin was added for digestion. After digestion was complete, 7 mL of culture medium was added to neutralize, then centrifuged. The supernatant was aspirated, and 5 mL of culture medium was added to resuspend to ensure that the cell density is 2-5×10^6/mL.
# Both the single-cell high-impedance sealing and whole-cell mode formation processes were automatically completed by the Qpatch instrument. After obtaining the whole-cell recording mode, the cell was clamped at -80 mV. Before a 5-second +20 mV depolarizing stimulus was given, a 50-ms -50 mV pre-voltage was given, and then the cell was repolarized to -50 mV for 5 seconds and then returned to -80 mV. This voltage stimulation was applied every 15 seconds. After recording for 2 minutes, the extracellular solution was recorded for 2 minutes. Then the drug administration process began. The compound concentration started from the lowest tested concentration. Each tested concentration was given for 2 minutes. […] At least three cells were tested for each concentration (n≥3).
# The compound stock solution was diluted with extracellular fluid, 5 µL of 20 mM compound stock solution was added to 2495 µL extracellular fluid, diluted 500 times to 40 µM, and then serially diluted 3 times in extracellular fluid containing 0.2% DMSO (v/v) to obtain the final concentration to be tested.
# The experimental data were analyzed by XLFit software.
# human GLP-1 receptor = target: T1, human GLP-1 receptor (Homo sapiens, UniProt P43220); assay: GLP-1 receptor-mediated agonist activity: cAMP level in hGLP-1R/HEK293 cell line (HTRF); assay type: cell-based; conditions: cAMP levels in hGLP-1R/HEK293 cell line; Table 1; read-out: determined EC50
# T1 construct: HA (N); expressed in transfected cells
# T1 sequence (P43220 24-463): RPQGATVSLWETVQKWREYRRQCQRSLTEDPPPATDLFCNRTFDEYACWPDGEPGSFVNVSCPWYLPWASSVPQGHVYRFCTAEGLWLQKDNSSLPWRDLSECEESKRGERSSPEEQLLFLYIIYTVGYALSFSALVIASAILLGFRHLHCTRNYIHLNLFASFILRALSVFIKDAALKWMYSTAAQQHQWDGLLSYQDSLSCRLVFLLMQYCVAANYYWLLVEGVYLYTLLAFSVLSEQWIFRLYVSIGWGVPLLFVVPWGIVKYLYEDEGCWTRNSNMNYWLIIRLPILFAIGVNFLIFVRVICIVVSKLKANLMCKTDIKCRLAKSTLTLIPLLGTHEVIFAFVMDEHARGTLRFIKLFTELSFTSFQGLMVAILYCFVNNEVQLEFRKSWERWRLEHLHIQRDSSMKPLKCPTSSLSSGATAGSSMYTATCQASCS
# hERG potassium channels, sequence (Q12809 whole entry): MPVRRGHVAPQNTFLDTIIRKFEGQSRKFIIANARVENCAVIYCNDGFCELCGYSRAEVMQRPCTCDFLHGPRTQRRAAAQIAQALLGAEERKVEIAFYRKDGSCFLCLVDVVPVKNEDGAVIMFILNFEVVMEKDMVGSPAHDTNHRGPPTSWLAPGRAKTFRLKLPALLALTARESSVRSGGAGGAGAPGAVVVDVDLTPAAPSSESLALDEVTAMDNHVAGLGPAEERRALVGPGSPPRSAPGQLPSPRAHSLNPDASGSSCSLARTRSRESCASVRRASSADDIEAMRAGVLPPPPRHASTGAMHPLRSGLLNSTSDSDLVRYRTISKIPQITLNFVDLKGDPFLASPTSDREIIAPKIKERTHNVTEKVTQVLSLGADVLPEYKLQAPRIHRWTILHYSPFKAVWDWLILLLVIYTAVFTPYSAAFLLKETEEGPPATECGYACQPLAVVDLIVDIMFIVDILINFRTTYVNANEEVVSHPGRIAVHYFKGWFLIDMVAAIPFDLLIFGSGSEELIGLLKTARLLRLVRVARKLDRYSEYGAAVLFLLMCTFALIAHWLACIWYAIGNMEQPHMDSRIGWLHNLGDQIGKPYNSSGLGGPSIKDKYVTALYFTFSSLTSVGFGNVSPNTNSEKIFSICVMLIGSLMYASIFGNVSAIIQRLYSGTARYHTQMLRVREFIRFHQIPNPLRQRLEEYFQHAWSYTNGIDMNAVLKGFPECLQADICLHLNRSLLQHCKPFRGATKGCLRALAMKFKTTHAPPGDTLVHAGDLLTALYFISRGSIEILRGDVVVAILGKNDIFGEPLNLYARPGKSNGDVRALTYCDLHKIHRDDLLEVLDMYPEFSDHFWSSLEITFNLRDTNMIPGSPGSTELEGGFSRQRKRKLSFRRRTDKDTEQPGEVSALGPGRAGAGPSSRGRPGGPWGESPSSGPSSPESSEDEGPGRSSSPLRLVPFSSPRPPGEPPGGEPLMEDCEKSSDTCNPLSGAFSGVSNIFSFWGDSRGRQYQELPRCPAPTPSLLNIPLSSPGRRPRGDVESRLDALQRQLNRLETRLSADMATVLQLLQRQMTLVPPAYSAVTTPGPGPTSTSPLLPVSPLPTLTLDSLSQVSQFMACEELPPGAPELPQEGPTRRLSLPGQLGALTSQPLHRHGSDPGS
Structure (SMILES),IC50 (hERG potassium channels) [nM],EC50 (human GLP-1 receptor) [nM]
"[2H]C([2H])([2H])Oc1cc(C(=O)O)cc2c1nc(CN1CCC(c3cccc4c3OC(C)(c3ccc(C(F)(F)F)cn3)O4)CC1)n2C[C@@H]1CCO1 (stereo partly drawn) [Compound 67, 4-(methoxy-d3)-2-((4-(2-methyl-2-(5-(trifluoromethyl)pyridin-2-yl)benzo[d][1,3]dioxol-4-yl)piperidin-1-yl)methyl)-1-(((S)-oxetan-2-yl)methyl)-1H-benzo[d]imidazole-6-carboxylic acid]",> 40000,0.0141
"COc1cc(C(=O)O)cc2c1nc(CN1CCN(c3cccc(OCc4ccc(Cl)cc4F)n3)C=N1)n2C[C@@H]1CCO1 [Compound 17, (S)-2-((4-(6-((4-chloro-2-fluorobenzyl)oxy)pyridin-2-yl)-5,6-dihydro-1,2,4-triazin-1(4H)-yl)methyl)-4-methoxy-1-(oxetan-2-ylmethyl)-1H-benzo[d]imidazole-6-carboxylic acid]",> 40000,0.0047
"[2H]C([2H])([2H])C([2H])([2H])Oc1cc(C(=O)O)cc2c1nc(CN1CCN(c3cccc4c3OC(C)(c3ccc(Cl)cn3)O4)C=N1)n2C[C@@H]1CCO1 (stereo partly drawn) [Compound 73, 2-((4-(2-(5-chloropyridin-2-yl)-2-methylbenzo[d][1,3]dioxol-4-yl)-5,6-dihydro-1,2,4-triazin-1(4H)-yl)methyl)-4-(ethoxy-d5)-1-(((S)-oxetan-2-yl)methyl)-1H-benzo[d]imidazole-6-carboxylic acid]",> 40000,0.0084
"[2H]C([2H])([2H])Oc1cc(C(=O)O)cc2c1nc(CN1CCC(c3cccc4c3OC(C)(c3ccc(Cl)cn3)O4)CC1)n2C[C@@H]1CCO1 (stereo partly drawn) [Compound 61, 2-((4-(2-(5-chloropyridin-2-yl)-2-methylbenzo[d][1,3]dioxol-4-yl)piperidin-1-yl)methyl)-4-(methoxy-d3)-1-(((S)-oxetan-2-yl)methyl)-1H-benzo[d]imidazole-6-carboxylic acid]",> 40000,0.0103
"[2H]C([2H])([2H])C([2H])([2H])Oc1cc(C(=O)O)cc2c1nc(CN1CCN(c3cccc4c3OC(C)(c3ccc(Cl)cc3F)O4)C=N1)n2C[C@@H]1CCO1 (stereo partly drawn) [Compound 76, 2-((4-(2-(4-chloro-2-fluorophenyl)-2-methylbenzo[d][1,3]dioxol-4-yl)-5,6-dihydro-1,2,4-triazin-1(4H)-yl)methyl)-4-(ethoxy-d5)-1-(((S)-oxetan-2-yl)methyl)-1H-benzo[d]imidazole-6-carboxylic acid]",> 40000,0.0045
"CCOc1cc(C(=O)O)cc2c1nc(CN1CCN(c3cccc4c3OC(C)(c3ccc(C(F)(F)F)cc3F)O4)C=N1)n2C[C@@H]1CCO1 (stereo partly drawn) [Compound 81, 4-ethoxy-2-((4-(2-(2-fluoro-4-(trifluoromethyl)phenyl)-2-methylbenzo[d][1,3]dioxol-4-yl)-5,6-dihydro-1,2,4-triazin-1(4H)-yl)methyl)-1-(((S)-oxetan-2-yl)methyl)-1H-benzo[d]imidazole-6-carboxylic acid]",> 40000,0.0084
"COc1cc(C(F)(F)F)ccc1COc1cccc(N2C=NN(Cc3nc4c(OC)cc(C(=O)O)cc4n3C[C@@H]3CCO3)CC2)n1 [Compound 23, (S)-4-methoxy-2-((4-(6-((2-methoxy-4-(trifluoromethyl)benzyl)oxy)pyridin-2-yl)-5,6-dihydro-1,2,4-triazin-1(4H)-yl)methyl)-1-(oxetan-2-ylmethyl)-1H-benzo[d]imidazole-6-carboxylic acid]",> 40000,0.0015
[2H]C([2H])([2H])C([2H])([2H])Oc1cc(C(=O)O)cc2c1nc(CN1CCN(c3cccc4c3OC(C)(c3ccc(C(F)(F)F)cc3F)O4)C=N1)n2C[C@@H]1CCO1 (some centres unmarked) [Compound 82],> 40000,0.0131
"COc1cc(C(=O)O)cc2c1nc(CN1CCC(c3cccnc3OCc3ccc(C#N)c4c3OCC4)CC1)n2C[C@@H]1CCO1 [Compound 35, (S)-2-((4-(2-((4-cyano-2,3-dihydrobenzofuran-7-yl)methoxy)pyridin-3-yl)piperidin-1-yl)methyl)-4-methoxy-1-(oxetan-2-ylmethyl)-1H-benzo[d]imidazole-6-carboxylic acid]",,0.0082
